pIC50: −log10 of the molar value.
Tests used:
[1] = molecular target: T1, EGF binding site, rat liver membranes (Rattus norvegicus, UniProt G3V6K6); experiment: Inhibition of [125I]EGF binding (NovaScreen EGF inhibitor assay)
T1 construct: Receptor source was rat liver membranes; tissue NovaScreen BioSciences; host or cells: rat liver membranes
Experimental: Identified compounds, representing various pharmacaphore models, were tested for ability to inhibit EGFR at 25 μM.
AD4-compounds were identified using pharmacophore models (see Example 3) and then were docked with the binding site of EGFR (SEQ ID NO: 1) that is recognized by defined CDRs of cetuximab.
Receptor source was rat liver membranes. The radioligand was [^125I]EGF ([…]) at a final ligand concentration of 0.36 nM. A non-specific determinant was used as EGF—[100 nM]. The reference compound and positive control was EGF. Reactions were carried out in 10 mM HEPES (pH 7.4) containing 0.1% BSA at 25° C. for 60 minutes. The reaction was terminated by rapid vacuum filtration onto glass fiber filters. Radioactivity trapped onto the filters was determined and compared to control values to ascertain any interactions of test compounds with the EGF binding site. The EGF inhibitor assays were modified from, for example, Mukku (1984) J. Biol. Chem. 259, 6543-6546; Duh et al. (1990) World J. Surgery 14, 410-418; Lokeshwar et al. (1989) J. Biol. Chem. 264(32), 19318-19326.

MDBK line = experiment: MTT Cell Proliferation Assay, MDBK line; type: cell-based, bovine; details: 72 h; second value of A431/MDBK pair; read-out: MTT-72 h MDBK
Method in brief: (§1)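 Cells plated overnight, then exposed 3 days at 37 °C, 5% CO2 to compound in growth medium with 0.5% FBS and 0.5% DMSO final (0.5% DMSO as control).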

EGFR = molecular target: T2, EGFR (Homo sapiens, UniProt P00533); experiment: EGFR in-cell Western (ICW) screening protocol; type: cell-based; parameters: unit not given here; details: listed as 1505
T2 construct: endogenous in cells; host or cells: A431 cells (ATCC CRL-1555)
Method in brief: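 Serum-starved cells treated with compound 4 h at 37 °C, then stimulated with EGF (20 or 0 ng/ml solution added) in its continued presence. In-cell Western on fixed cells: phospho-EGFR (800 channel) normalised to total EGFR (700 channel), % inhibition calculated against EGF-stimulated and unstimulated no-compound wells.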

[2] = tested on: EGF receptor-mediated cell proliferation; experiment: Combinatorial studies with known EGFR inhibitors, median effect analysis (MTT assay); details: for DRI @ ED97: Dose Reduction Index
Experimental: Studies were initiated to evaluate the ability of various compounds disclosed herein to synergize with several compounds known to inhibit the function of the EGF receptor in a cell proliferation assay (MTT assay).
The EGFR inhibitor and AD4 compound dilutions were then mixed 1:1 in a 96 well plate. 50 μl of the mix was then added to the cell plate.
A shifting of the inhibitor curve to the left indicates an increase in the effectiveness of the AD4-compound.

[3] = tested on: epithelial carcinoma A431 cell line; experiment: MTT Cell Proliferation Assay, A431 cell line; type: cell-based; details: 72 h
Method in brief: as §1

T2 sequence (P00533 25-1210): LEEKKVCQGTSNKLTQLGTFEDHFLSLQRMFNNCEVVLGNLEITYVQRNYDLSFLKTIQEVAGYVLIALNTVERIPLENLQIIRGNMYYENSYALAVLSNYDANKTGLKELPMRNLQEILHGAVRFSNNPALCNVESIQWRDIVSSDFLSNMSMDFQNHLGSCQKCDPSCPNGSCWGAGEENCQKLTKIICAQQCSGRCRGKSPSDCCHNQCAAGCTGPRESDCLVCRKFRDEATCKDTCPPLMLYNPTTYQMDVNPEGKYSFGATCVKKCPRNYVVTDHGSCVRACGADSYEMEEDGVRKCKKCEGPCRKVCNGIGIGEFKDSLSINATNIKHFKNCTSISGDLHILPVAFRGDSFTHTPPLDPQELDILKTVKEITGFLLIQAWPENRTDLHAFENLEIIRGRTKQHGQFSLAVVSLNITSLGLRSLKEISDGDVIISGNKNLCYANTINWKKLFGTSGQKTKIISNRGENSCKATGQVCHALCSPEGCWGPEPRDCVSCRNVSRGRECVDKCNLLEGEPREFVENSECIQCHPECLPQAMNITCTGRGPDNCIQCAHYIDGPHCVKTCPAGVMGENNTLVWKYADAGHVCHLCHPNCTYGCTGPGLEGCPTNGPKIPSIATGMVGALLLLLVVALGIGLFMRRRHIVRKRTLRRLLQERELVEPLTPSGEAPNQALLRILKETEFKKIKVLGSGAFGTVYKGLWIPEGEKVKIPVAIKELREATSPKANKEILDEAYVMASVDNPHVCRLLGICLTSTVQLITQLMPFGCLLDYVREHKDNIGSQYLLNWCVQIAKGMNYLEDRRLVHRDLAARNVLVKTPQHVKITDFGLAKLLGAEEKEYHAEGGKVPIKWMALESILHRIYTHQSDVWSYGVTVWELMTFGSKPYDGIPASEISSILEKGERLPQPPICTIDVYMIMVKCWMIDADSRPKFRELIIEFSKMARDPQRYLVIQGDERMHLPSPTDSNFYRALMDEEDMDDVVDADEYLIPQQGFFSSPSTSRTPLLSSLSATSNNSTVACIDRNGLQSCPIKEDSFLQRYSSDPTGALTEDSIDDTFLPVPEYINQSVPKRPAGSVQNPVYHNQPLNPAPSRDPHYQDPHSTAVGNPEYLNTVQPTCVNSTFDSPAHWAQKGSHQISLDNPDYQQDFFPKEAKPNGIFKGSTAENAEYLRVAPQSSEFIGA
T1 sequence (G3V6K6 25-1209): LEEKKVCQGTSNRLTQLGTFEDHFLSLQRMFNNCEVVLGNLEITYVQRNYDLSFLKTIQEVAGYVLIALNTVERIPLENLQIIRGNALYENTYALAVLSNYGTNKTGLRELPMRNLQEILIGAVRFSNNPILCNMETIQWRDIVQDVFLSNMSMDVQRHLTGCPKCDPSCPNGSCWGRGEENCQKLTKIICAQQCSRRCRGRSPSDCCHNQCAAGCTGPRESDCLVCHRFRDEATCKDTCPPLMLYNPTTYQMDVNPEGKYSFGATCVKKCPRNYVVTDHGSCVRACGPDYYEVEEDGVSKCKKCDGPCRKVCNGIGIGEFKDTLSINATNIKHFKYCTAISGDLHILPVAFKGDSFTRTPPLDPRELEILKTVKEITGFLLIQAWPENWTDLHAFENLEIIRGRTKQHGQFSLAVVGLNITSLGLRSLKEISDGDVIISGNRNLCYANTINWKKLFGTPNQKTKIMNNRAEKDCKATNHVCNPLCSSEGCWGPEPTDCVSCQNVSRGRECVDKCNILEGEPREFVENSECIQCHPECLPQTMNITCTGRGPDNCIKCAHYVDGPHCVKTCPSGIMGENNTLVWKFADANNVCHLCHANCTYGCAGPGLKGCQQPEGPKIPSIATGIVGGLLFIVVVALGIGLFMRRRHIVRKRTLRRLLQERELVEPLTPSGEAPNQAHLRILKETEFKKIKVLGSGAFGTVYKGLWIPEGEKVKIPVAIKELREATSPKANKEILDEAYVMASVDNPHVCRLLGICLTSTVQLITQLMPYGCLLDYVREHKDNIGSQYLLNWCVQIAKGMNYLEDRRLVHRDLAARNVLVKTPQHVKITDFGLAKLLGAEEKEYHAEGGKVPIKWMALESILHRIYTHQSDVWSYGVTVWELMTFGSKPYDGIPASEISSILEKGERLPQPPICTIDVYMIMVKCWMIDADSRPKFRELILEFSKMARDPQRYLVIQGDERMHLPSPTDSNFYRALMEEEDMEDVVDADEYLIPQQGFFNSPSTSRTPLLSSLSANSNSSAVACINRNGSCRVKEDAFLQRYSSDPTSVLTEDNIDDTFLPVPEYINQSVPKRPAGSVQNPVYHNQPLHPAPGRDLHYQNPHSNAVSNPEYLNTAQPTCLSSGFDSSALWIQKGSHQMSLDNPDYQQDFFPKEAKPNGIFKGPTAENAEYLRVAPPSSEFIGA

- ICW Screen (EGFR; initial screen): 55.71
- ICW Re-Test (EGFR; re-test): 47.05
- pIC50 ([3]; first value of A431/MDBK pair, read-out: MTT-72 h A431): 5.08
SMILES: COc1ccc(C(Nc2cc(C)ccn2)c2ccc3cccnc3c2O)cc1O (centres unmarked) [AD4-1505]
- inhibition of epidermal growth factor binding [1]: inhibitor of epidermal growth factor binding to its receptor
- pIC50 (MDBK line): 5.03
- CI @ ED90 ([2]; Combination Index with Iressa at 90% inhibition): 0.59
- CI @ ED90 ([2]; Combination Index with Tykerb at 90% inhibition): 0.10
- DRI @ ED97 ([2]; effect of the test compound on Iressa): 78
- DRI @ ED97 ([2]; effect of the test compound on Tykerb): 203
- synergy with Iressa ([2]; based on CI value): shows synergy
- synergy with Tykerb ([2]; based on CI value): significant synergy
- shift in Tykerb's dose-response curve ([2]; in combination with Tykerb): leftward shift (i.e., greater potency)
- IC50 ([2]; read-out: IC50 Iressa + Compound (nM)): 133 nM
- MTT-72 h A431/MDBK (ratio) ([3]; value in brackets, numerically MDBK value over A431 value, listed as 1505): 1.12
